{"source": "patent US20250034144A1", "about": "“NEW CRYSTAL FORM OF ERTAPENEM SODIUM AND PREPARATION METHOD THEREFOR” (ASYMCHEM LABORATORIES (TIANJIN) CO., LTD., priority 2021, published 2025)", "key": {"[1]": {"experiment": "Fluidity related test (densities, Carr index, Hausner ratio, angle of repose)", "format": "physicochemical", "procedure": "(Two) A fluidity related test was carried out on the crystal form A product of ertapenem sodium, the crystal form B product, the crystal form C product, the crystal form D product, the crystal form E product and the amorphous product of ertapenem sodium. [formula] [formula] [table]"}, "[2]": {"experiment": "Stability of the product at −18° C. (purity and content over 12 months)", "format": "physicochemical", "procedure": "Data of the stability of the product at −18° C. are shown in Table 2 below: […]"}}, "data": [{"compound": "C[C@@H](O)[C@H]1C(=O)N2C(C(=O)[O-])=C(S[C@@H]3CN[C@H](C(=O)Nc4cccc(C(=O)O)c4)C3)[C@H](C)[C@H]12.[Na+]", "note": "[Amorphous, ertapenem sodium]", "values": [{"measurement": "Angle of repose", "setting": "[1]", "result": 47, "unit": "°"}, {"measurement": "Bulk density", "setting": "[1]", "result": 0.63, "unit": "g/mL"}, {"measurement": "Carr index", "setting": "[1]", "result": 20, "unit": "%"}, {"measurement": "Hausner ratio", "setting": "[1]", "result": 1.25}, {"measurement": "Tap density", "setting": "[1]", "result": 0.79, "unit": "g/mL"}]}, {"compound": "C[C@@H](O)[C@H]1C(=O)N2C(C(=O)[O-])=C(S[C@@H]3CN[C@H](C(=O)Nc4cccc(C(=O)O)c4)C3)[C@H](C)[C@H]12.[Na+]", "note": "[Crystal form A, ertapenem sodium]", "values": [{"measurement": "Angle of repose", "setting": "[1]", "result": 43, "unit": "°"}, {"measurement": "Bulk density", "setting": "[1]", "result": 0.64, "unit": "g/mL"}, {"measurement": "Carr index", "setting": "[1]", "result": 22, "unit": "%"}, {"measurement": "Hausner ratio", "setting": "[1]", "result": 1.28}, {"measurement": "Tap density", "setting": "[1]", "result": 0.82, "unit": "g/mL"}]}, {"compound": "C[C@@H](O)[C@H]1C(=O)N2C(C(=O)[O-])=C(S[C@@H]3CN[C@H](C(=O)Nc4cccc(C(=O)O)c4)C3)[C@H](C)[C@H]12.[Na+]", "note": "[Crystal form B, ertapenem sodium]", "values": [{"measurement": "Angle of repose", "setting": "[1]", "result": 41, "unit": "°"}, {"measurement": "Bulk density", "setting": "[1]", "result": 0.63, "unit": "g/mL"}, {"measurement": "Carr index", "setting": "[1]", "result": 20, "unit": "%"}, {"measurement": "Hausner ratio", "setting": "[1]", "result": 1.25}, {"measurement": "Tap density", "setting": "[1]", "result": 0.79, "unit": "g/mL"}]}, {"compound": "C[C@@H](O)[C@H]1C(=O)N2C(C(=O)[O-])=C(S[C@@H]3CN[C@H](C(=O)Nc4cccc(C(=O)O)c4)C3)[C@H](C)[C@H]12.[Na+]", "note": "[Crystal form C, ertapenem sodium]", "values": [{"measurement": "Angle of repose", "setting": "[1]", "result": 43, "unit": "°"}, {"measurement": "Bulk density", "setting": "[1]", "result": 0.63, "unit": "g/mL"}, {"measurement": "Carr index", "setting": "[1]", "result": 19, "unit": "%"}, {"measurement": "Hausner ratio", "setting": "[1]", "result": 1.24}, {"measurement": "Tap density", "setting": "[1]", "result": 0.78, "unit": "g/mL"}]}, {"compound": "C[C@@H](O)[C@H]1C(=O)N2C(C(=O)[O-])=C(S[C@@H]3CN[C@H](C(=O)Nc4cccc(C(=O)O)c4)C3)[C@H](C)[C@H]12.[Na+]", "note": "[Crystal form D, ertapenem sodium]", "values": [{"measurement": "Angle of repose", "setting": "[1]", "result": 47, "unit": "°"}, {"measurement": "Bulk density", "setting": "[1]", "result": 0.64, "unit": "g/mL"}, {"measurement": "Carr index", "setting": "[1]", "result": 21, "unit": "%"}, {"measurement": "Hausner ratio", "setting": "[1]", "result": 1.27}, {"measurement": "Tap density", "setting": "[1]", "result": 0.81, "unit": "g/mL"}]}, {"compound": "C[C@@H](O)[C@H]1C(=O)N2C(C(=O)[O-])=C(S[C@@H]3CN[C@H](C(=O)Nc4cccc(C(=O)O)c4)C3)[C@H](C)[C@H]12.[Na+]", "note": "[Crystal form E, ertapenem sodium]", "values": [{"measurement": "Angle of repose", "setting": "[1]", "result": 46, "unit": "°"}, {"measurement": "Bulk density", "setting": "[1]", "result": 0.66, "unit": "g/mL"}, {"measurement": "Carr index", "setting": "[1]", "result": 20, "unit": "%"}, {"measurement": "Hausner ratio", "setting": "[1]", "result": 1.26}, {"measurement": "Tap density", "setting": "[1]", "result": 0.83, "unit": "g/mL"}]}, {"compound": "C[C@@H](O)[C@H]1C(=O)N2C(C(=O)[O-])=C(S[C@@H]3CN[C@H](C(=O)Nc4cccc(C(=O)O)c4)C3)[C@H](C)[C@H]12.[Na+]", "note": "[Crystal form F, ertapenem sodium]", "values": [{"measurement": "Angle of repose", "setting": "[1]", "result": 23, "unit": "°"}, {"measurement": "Bulk density", "setting": "[1]", "result": 0.64, "unit": "g/mL"}, {"measurement": "Carr index", "setting": "[1]", "result": 10, "unit": "%"}, {"measurement": "Hausner ratio", "setting": "[1]", "result": 1.11}, {"measurement": "Tap density", "setting": "[1]", "result": 0.71, "unit": "g/mL"}, {"measurement": "Fluidity (in words)", "setting": "[1]; compared with crystal forms A-E and the amorphous product", "result": "better fluidity"}]}, {"compound": "C[C@@H](O)[C@H]1C(=O)N2C(C(=O)[O-])=C(S[C@@H]3CN[C@H](C(=O)Nc4cccc(C(=O)O)c4)C3)[C@H](C)[C@H]12.[Na+]", "note": "[Example 1, ertapenem sodium]", "values": [{"measurement": "Content", "setting": "[2]; 0 month", "result": 99.2, "unit": "%"}, {"measurement": "Purity", "setting": "[2]; 0 month", "result": 99.4, "unit": "%"}, {"measurement": "Content", "setting": "[2]; 1 month", "result": 99.2, "unit": "%"}, {"measurement": "Purity", "setting": "[2]; 1 month", "result": 99.4, "unit": "%"}, {"measurement": "Content", "setting": "[2]; 2 months", "result": 99.2, "unit": "%"}, {"measurement": "Purity", "setting": "[2]; 2 months", "result": 99.4, "unit": "%"}, {"measurement": "Content", "setting": "[2]; 3 months", "result": 99.2, "unit": "%"}, {"measurement": "Purity", "setting": "[2]; 3 months", "result": 99.4, "unit": "%"}, {"measurement": "Content", "setting": "[2]; 4 months", "result": 99.2, "unit": "%"}, {"measurement": "Purity", "setting": "[2]; 4 months", "result": 99.3, "unit": "%"}, {"measurement": "Content", "setting": "[2]; 5 months", "result": 99.1, "unit": "%"}, {"measurement": "Purity", "setting": "[2]; 5 months", "result": 99.3, "unit": "%"}, {"measurement": "Content", "setting": "[2]; 6 months", "result": 99.1, "unit": "%"}, {"measurement": "Purity", "setting": "[2]; 6 months", "result": 99.3, "unit": "%"}, {"measurement": "Content", "setting": "[2]; 7 months", "result": 99.1, "unit": "%"}, {"measurement": "Purity", "setting": "[2]; 7 months", "result": 99.3, "unit": "%"}, {"measurement": "Content", "setting": "[2]; 8 months", "result": 99.1, "unit": "%"}, {"measurement": "Purity", "setting": "[2]; 8 months", "result": 99.3, "unit": "%"}, {"measurement": "Content", "setting": "[2]; 9 months", "result": 99.1, "unit": "%"}, {"measurement": "Purity", "setting": "[2]; 9 months", "result": 99.3, "unit": "%"}, {"measurement": "Content", "setting": "[2]; 10 months", "result": 99.1, "unit": "%"}, {"measurement": "Purity", "setting": "[2]; 10 months", "result": 99.3, "unit": "%"}, {"measurement": "Content", "setting": "[2]; 11 months", "result": 99.0, "unit": "%"}, {"measurement": "Purity", "setting": "[2]; 11 months", "result": 99.2, "unit": "%"}, {"measurement": "Content", "setting": "[2]; 12 months", "result": 99.0, "unit": "%"}, {"measurement": "Purity", "setting": "[2]; 12 months", "result": 99.2, "unit": "%"}, {"measurement": "Stability of the crystal form product (in words)", "setting": "[2]; 12 months", "result": "very stable"}]}, {"compound": "C[C@@H](O)[C@H]1C(=O)N2C(C(=O)[O-])=C(S[C@@H]3CN[C@H](C(=O)Nc4cccc(C(=O)O)c4)C3)[C@H](C)[C@H]12.[Na+]", "note": "[Example 2, ertapenem sodium]", "values": [{"measurement": "Content", "setting": "[2]; 0 month", "result": 99.1, "unit": "%"}, {"measurement": "Purity", "setting": "[2]; 0 month", "result": 99.2, "unit": "%"}, {"measurement": "Content", "setting": "[2]; 1 month", "result": 99.1, "unit": "%"}, {"measurement": "Purity", "setting": "[2]; 1 month", "result": 99.2, "unit": "%"}, {"measurement": "Content", "setting": "[2]; 2 months", "result": 99.1, "unit": "%"}, {"measurement": "Purity", "setting": "[2]; 2 months", "result": 99.2, "unit": "%"}, {"measurement": "Content", "setting": "[2]; 3 months", "result": 99.1, "unit": "%"}, {"measurement": "Purity", "setting": "[2]; 3 months", "result": 99.2, "unit": "%"}, {"measurement": "Content", "setting": "[2]; 4 months", "result": 99.1, "unit": "%"}, {"measurement": "Purity", "setting": "[2]; 4 months", "result": 99.2, "unit": "%"}, {"measurement": "Content", "setting": "[2]; 5 months", "result": 99.0, "unit": "%"}, {"measurement": "Purity", "setting": "[2]; 5 months", "result": 99.1, "unit": "%"}, {"measurement": "Content", "setting": "[2]; 6 months", "result": 99.0, "unit": "%"}, {"measurement": "Purity", "setting": "[2]; 6 months", "result": 99.1, "unit": "%"}, {"measurement": "Content", "setting": "[2]; 7 months", "result": 99.0, "unit": "%"}, {"measurement": "Purity", "setting": "[2]; 7 months", "result": 99.1, "unit": "%"}, {"measurement": "Content", "setting": "[2]; 8 months", "result": 99.0, "unit": "%"}, {"measurement": "Purity", "setting": "[2]; 8 months", "result": 99.1, "unit": "%"}, {"measurement": "Content", "setting": "[2]; 9 months", "result": 99.0, "unit": "%"}, {"measurement": "Purity", "setting": "[2]; 9 months", "result": 99.1, "unit": "%"}, {"measurement": "Content", "setting": "[2]; 10 months", "result": 99.0, "unit": "%"}, {"measurement": "Purity", "setting": "[2]; 10 months", "result": 99.0, "unit": "%"}, {"measurement": "Content", "setting": "[2]; 11 months", "result": 99.0, "unit": "%"}, {"measurement": "Purity", "setting": "[2]; 11 months", "result": 99.0, "unit": "%"}, {"measurement": "Content", "setting": "[2]; 12 months", "result": 99.0, "unit": "%"}, {"measurement": "Purity", "setting": "[2]; 12 months", "result": 99.0, "unit": "%"}, {"measurement": "Stability of the crystal form product (in words)", "setting": "[2]; 12 months", "result": "very stable"}]}]}
